Data reported in patent US7994161B2, “Derivatives of 2-alkoxy-3,4,5-trihydroxy-alkyl amides, preparation and use thereof, and compositions containing the same” (Sanofi-Aventis, priority 2006, dated 2011).

System: HCT116 cells
Experiment: Antiproliferative activity: inhibition of cellular proliferation of HCT116 cells (14C-thymidine incorporation)
Type: cell-based
Conditions: Homo sapiens, HCT-116, 96 hours
Procedure: The antiproliferative activity of the products of the examples of Table 1 was determined by measuring the inhibition of the cellular proliferation of HCT116 cells.
The cells are inoculated into a cell culture medium at a concentration of 10 000 cells per well, in 0.17 mL of medium, and 20 μL of product to be tested, at various concentrations, and 10 μL of thymidine [methyl-14C] (100 μCi/ml—specific activity 47.90 mCi/mmol; NEN Technologies reference NEC568 batch 3550-001) are added, and then the cells are incubated at 37° C. and 5% CO2.
Medium used for the culture of HCT116 cells:DMEM medium 2 mM L-glutamine, 200 IU/ml penicillin, 200 μg/ml streptomycin and 10% (V/V) foetal calf serum (Life Technologies).
After 96 hours, the incorporation of ^14C-thymidine is counted in a Microbeta Wallac Trilux 1450 liquid scintillation counter. The results R are expressed in cpm (counts per minute) and converted to percentage growth inhibition GI % by first subtracting the mean of the number of cpm of the wells without B cells and by then dividing by the number of cpm of the wells of the untreated cells C comprising 20 μL of medium for dilution of the product containing 1% ethanol. (GI %=(R−B)×100/C %).
The IC50 values are calculated with the aid of the equation 205 of the XLFit software (IDBS company, UK) by non-linear regression analysis using the Marquardt algorithm (Donald W. MARQUARDT, J. Soc. industry. appl, vol 11, No. 2, June, 1963).

SMILES | IC50 [nM]
CO[C@@H](C(=O)N[C@H]1COc2ccccc2NC1=O)[C@H](O)[C@@H](O)[C@H](O)/C=C/C(C)(C)C [Example 1, N-((S)-8-oxo-6,7,8,9-tetrahydro-5-oxa-9-azabenzocyclohepten-7-yl)-(E)-(2R,3R,4S,5R)-3,4,5-trihydroxy-2-methoxy-8,8-dimethylnon-6-enamide] | 60
CO[C@@H](C(=O)N[C@H]1CNc2ccccc2NC1=O)[C@H](O)[C@@H](O)[C@H](O)/C=C/C(C)(C)C [Example 3, N-((S)-2-oxo-2,3,4,5-tetrahydro-1H-1,5-benzodiazepin-3-yl)-(E)-(2R,3R,4S,5R)-3,4,5-trihydroxy-2-methoxy-8,8-dimethylnon-6-enamide] | 88
CO[C@@H](C(=O)N[C@H]1CNc2ccccc2N(C)C1=O)[C@H](O)[C@@H](O)[C@H](O)/C=C/C(C)(C)C [Example 4, N-((S)-1-methyl-2-oxo-2,3,4,5-tetrahydro-1H-1,5-benzodiazepin-3-yl)-(E)-(2R,3R,4S,5R)-3,4,5-trihydroxy-2-methoxy-8,8-dimethylnon-6-enamide] | 45

These reach a lower IC50. Values come first.

IC50 [nM] | SMILES
32 | CO[C@@H](C(=O)N[C@H]1COc2ccccc2N(C)C1=O)[C@H](O)[C@@H](O)[C@H](O)/C=C/C(C)(C)C [Example 2, N-((S)-9-methyl-8-oxo-6,7,8,9-tetrahydro-5-oxa-9-azabenzocyclohepten-7-yl)-(E)-(2R,3R,4S,5R)-3,4,5-trihydroxy-2-methoxy-8,8-dimethylnon-6-enamide]
28 | CO[C@@H](C(=O)NC1CN(C)c2ccccc2NC1=O)[C@H](O)[C@@H](O)[C@H](O)/C=C/C(C)(C)C (stereo partly drawn) [Example 5, N-((S)-1-methyl-4-oxo-2,3,4,5-tetrahydro-1H-1,5-bezodiazepin-3-yl)-(E)-(2R,3R,4S,5R)-3,4,5-trihydroxy-2-methoxy-8,8-dimethylnon-6-enamide]

System: not listed separately
Experiment: in vitro
Conditions: human, Caco-2

Papp [×10⁻⁶ cm/s] | SMILES
5.2 | CO[C@@H](C(=O)N[C@H]1COc2ccccc2N(C)C1=O)[C@H](O)[C@@H](O)[C@H](O)/C=C/C(C)(C)C [Example 2, N-((S)-9-methyl-8-oxo-6,7,8,9-tetrahydro-5-oxa-9-azabenzocyclohepten-7-yl)-(E)-(2R,3R,4S,5R)-3,4,5-trihydroxy-2-methoxy-8,8-dimethylnon-6-enamide]
